Legend:
Human dermal fibroblasts [1] = assay: RT-PCR analysis of mRNA levels of ECM components after atRA treatment; type: cell-based; conditions: fold induction (+) or suppression (−) vs control; 10^-7 M, 24 hours
Description: (§1) Human dermal fibroblasts were grown in DMEM cell culture media containing 10% fetal bovine serum and 1% penicillin/streptomycin (Invitrogen). For all experiments, third-passage fibroblasts were used one day after reaching confluence. […] After 24 hour treatment RNA and protein was isolated and analyzed for the expression of components of ECM and transcriptional regulators.
(§2) Total RNA from various human tissues was purified using RNAwiz (Ambion, USA) and subjected to subsequent DNase I treatment using the DNA-Free kit (Ambion). Total RNA from cancer cells was purified by using 4PCRmini kit (Ambion). First-strand cDNAs were synthesized with Superscript III reverse transcriptase (Invitrogen, USA) and 5 μg of total RNA using oligo d(T) priming in a final reaction volume of 50 μL
The cDNA was amplified by PCR using the 2.5 U Hot-Firepol (Solis BioDyne, Estonia) and buffer Yellow (Naxo, Estonia). Reaction was performed in a 10 ul volume, using 0.5 ul cDNA as a template. Following primer sets (Table 21) were designed for this study:
The thermal cycling protocols were as follows: initial denaturation of template DNA and heat-activation of polymerase (15 min at 95° C.) followed by 40 cycles denaturation (30 sec at 95° C.) annealing (58° C.) and extension (90 sec). PCR products were analysed on a 1% agarose gel. For sequencing, PCR reactions were purified using PCR purification kit (Qiagen, USA) and subcloned into TOPO TA cloning vector. Fragments were sequenced at GATC Biotech sequencing services (Germany).

Human dermal fibroblasts [2] = assay: Western blot analysis of protein levels of ECM components after atRA treatment; type: cell-based; conditions: fold induction (+) or suppression (−) vs control; 10^-7 M, 24 hours
Description: as §1
Cells were lysed in Cell Disruption Buffer supplied with the Paris kit (Ambion) and protein concentration was determined using Bradford reagent (Pierce). Proteins were separated on 10% SDS-PAAG and transferred into the PVDF membrane (Biorad). […] Signal was detected using ECL reagent (Pierce).

[3] = test system: dermal fibroblasts isolated from 17 individuals; assay: Real time RT-PCR of ECM components, nuclear hormone receptors and coregulators in fibroblasts from 17 individuals; type: cell-based, human
Description: Total RNA was extracted from cells using RNA aqueous kit (Ambion, USA). First-strand cDNAs were synthesized with Superscript III reverse transcriptase (Invitrogen, USA) and 1 μg of total RNA using oligo d(T) priming in a final reaction volume of 40 μL.
Levels of specific mRNAs were measured by real-time RT-PCR using Platinum SYBR Green qPCR SuperMix UDG (Invitrogen) according the protocol on the LightCycler 2.0 (Roche, US). The cycling program steps were: for one cycle 50° C. 2 min, for one cycle 95° C. 2 min and for 45 cycles: 95° C. 10 s, 60° C. 10 s, 72° C. 10 s. All samples were run in triplicates. Results were analyzed with the comparative Ct method (from Applied Biosystems manual; Livak and Schmittgen, 2001). Every sample was normalized for the housekeeping gene GAPDH. Transcript levels in the atRA and TGFb1 treated samples were compared to control samples.

[4] = test system: skin fibroblasts from 30 individuals; assay: Combined score of expression stimulation of 5 genes in fibroblast isolates (FIG. 1); type: cell-based, human; conditions: 24 hour treatment, atRA 10^-7 M, Matrixyl 1 μM, KappaElastin 1 μM
Description: as §1, §2
The cDNA was amplified by PCR using the 2.5 U Hot-Firepol (Solis BioDyne, Estonia) and buffer Yellow (Naxo, Estonia). Reaction was performed in a 10 ul volume, using 0.5 ul cDNA as a template. Following primer sets were designed for this study:
The combined score of expression stimulation of 5 genes was calculated and blotted for each fibroblast isolate. […] This biological variation provides a good biological rational to use molecular diagnostics for matching cosmetics product and skin cells of specific individual (personalized cosmetics).

[5] = fibroblasts from 17 individuals, 1 μM, 24 hours

CC1=C(/C=C/C(C)=C/C=C/C(C)=C/C(=O)O)C(C)(C)CCC1 [all trans retinoic acid, all-trans retinoic acid]
COL1A1 mRNA level (Human dermal fibroblasts [1]): 2 fold | COL1A2 mRNA level (Human dermal fibroblasts [1]): 4 fold | COL2A1 mRNA level (Human dermal fibroblasts [1]): 5 fold | COL3A1 mRNA level (Human dermal fibroblasts [1]): 2 fold | COL4A1 mRNA level (Human dermal fibroblasts [1]): 1 fold | COL4A2 mRNA level (Human dermal fibroblasts [1]): 3 fold | COL4A3 mRNA level (Human dermal fibroblasts [1]): 2 fold | COL4A4 mRNA level (Human dermal fibroblasts [1]): 1 fold | COL7A1 mRNA level (Human dermal fibroblasts [1]): 2 fold | Elastin ELN mRNA level (Human dermal fibroblasts [1]): 4 fold | FBLN5 mRNA level (Human dermal fibroblasts [1]): 2 fold | FN 1 mRNA level (Human dermal fibroblasts [1]): 1 fold | Fibrillin-1 mRNA level (Human dermal fibroblasts [1]): 1 fold | Fibrillin-2 mRNA level (Human dermal fibroblasts [1]): 1 fold | Fibulin-2 mRNA level (Human dermal fibroblasts [1]): 3 fold | Lumican mRNA level (Human dermal fibroblasts [1]): 1 fold | Lysyl oxidase mRNA level (Human dermal fibroblasts [1]): 8 fold | MMP2 mRNA level (Human dermal fibroblasts [1]): 2 fold | MMP7 mRNA level (Human dermal fibroblasts [1]): 2 fold | MMP9 mRNA level (Human dermal fibroblasts [1]): 2 fold | MMP12 mRNA level (Human dermal fibroblasts [1]): 2 fold | MMP13 mRNA level (Human dermal fibroblasts [1]): 5 fold | MMP19 mRNA level (Human dermal fibroblasts [1]): 1 fold | MMP20 mRNA level (Human dermal fibroblasts [1]): 1 fold | MMP-11 mRNA level (Human dermal fibroblasts [1]): 7 fold | TIMP1 mRNA level (Human dermal fibroblasts [1]): 2 fold | TIMP3 mRNA level (Human dermal fibroblasts [1]): 3 fold | TIMP4 mRNA level (Human dermal fibroblasts [1]): 1 fold | aggrecan mRNA level (Human dermal fibroblasts [1]): 1 fold | decorin mRNA level (Human dermal fibroblasts [1]): 6 fold | fibromodulin mRNA level (Human dermal fibroblasts [1]): 1 fold | COL1A1 protein level (Human dermal fibroblasts [2]): 2 fold | COL1A2 protein level (Human dermal fibroblasts [2]): 2 fold | COL2A1 protein level (Human dermal fibroblasts [2]): 3 fold | COL3A1 protein level (Human dermal fibroblasts [2]): 2 fold | COL4A1 protein level (Human dermal fibroblasts [2]): 1 fold | COL4A2 protein level (Human dermal fibroblasts [2]): 1 fold | COL4A3 protein level (Human dermal fibroblasts [2]): 1 fold | COL4A4 protein level (Human dermal fibroblasts [2]): 1 fold | COL5A1 protein level (Human dermal fibroblasts [2]): 1 fold | Elastin ELN protein level (Human dermal fibroblasts [2]): 2 fold | Lysyl oxidase protein level (Human dermal fibroblasts [2]): 3 fold | MMP2 protein level (Human dermal fibroblasts [2]): 2 fold | MMP-11 protein level (Human dermal fibroblasts [2]): 3 fold | decorin protein level (Human dermal fibroblasts [2]): 4 fold | variation between individuals of effect on expression of nuclear hormone receptors, compared with co-regulators ([3]; cells treated with atRA, 17 individuals): less variation | CBP expression in RA treatment compared to control, from-to between individuals [3, 5]: (from −2.15 to 3.17) fold | COL1A1 expression in RA treatment compared to control, from-to between individuals [3, 5]: (from −6.25 to 3.25) fold | COL1A2 expression in RA treatment compared to control, from-to between individuals [3, 5]: (from −3.13 to 1.83) fold | COL3A1 expression in RA treatment compared to control, from-to between individuals [3, 5]: (from −2.28 to 2.89) fold | COL4A1 expression in RA treatment compared to control, from-to between individuals [3, 5]: (from −3.97 to 2.18) fold | COL5A1 expression in RA treatment compared to control, from-to between individuals [3, 5]: (from −4.76 to 2.39) fold | COL5A2 expression in RA treatment compared to control, from-to between individuals [3, 5]: (from −1.41 to 2.94) fold | CTGF expression in RA treatment compared to control, from-to between individuals [3, 5]: (from −2.4 to 2.64) fold | ELN expression in RA treatment compared to control, from-to between individuals [3, 5]: (from −2.44 to 3.02) fold | FN 1 transcr.v.1 expression in RA treatment compared to control, from-to between individuals [3, 5]: (from −3.63 to 1.14) fold | Individual variation of gene expression in RA treatment: CBP [3, 5]: 5.32 fold | Individual variation of gene expression in RA treatment: COL1A1 [3, 5]: 9.5 fold | Individual variation of gene expression in RA treatment: COL1A2 [3, 5]: 4.96 fold | Individual variation of gene expression in RA treatment: COL3A1 [3, 5]: 5.17 fold | Individual variation of gene expression in RA treatment: COL4A1 [3, 5]: 6.15 fold | Individual variation of gene expression in RA treatment: COL4A4 [3, 5]: 1.63 fold | Individual variation of gene expression in RA treatment: COL5A1 [3, 5]: 7.15 fold | Individual variation of gene expression in RA treatment: COL5A2 [3, 5]: 4.35 fold | Individual variation of gene expression in RA treatment: CTGF [3, 5]: 5.04 fold | Individual variation of gene expression in RA treatment: ELN [3, 5]: 5.46 fold | Individual variation of gene expression in RA treatment: FN 1 transcr.v.1 [3, 5]: 4.77 fold | Individual variation of gene expression in RA treatment: MMP1, collagenase 1 [3, 5]: 7.09 fold | Individual variation of gene expression in RA treatment: MMP2 gelatinase [3, 5]: 5.05 fold | Individual variation of gene expression in RA treatment: MMP3 stromelysin [3, 5]: 6.4 fold | Individual variation of gene expression in RA treatment: MMP7 [3, 5]: 16.46 fold | Individual variation of gene expression in RA treatment: MMP10, stromelysin 2 [3, 5]: 12 fold | Individual variation of gene expression in RA treatment: MMP19 [3, 5]: 3.41 fold | Individual variation of gene expression in RA treatment: NCOA1 [3, 5]: 5.68 fold | Individual variation of gene expression in RA treatment: NCOA2 [3, 5]: 5.63 fold | Individual variation of gene expression in RA treatment: NCOA3 [3, 5]: 6.16 fold | Individual variation of gene expression in RA treatment: NCOA5 [3, 5]: 3.1 fold | Individual variation of gene expression in RA treatment: NCOA6 [3, 5]: 3.43 fold | Individual variation of gene expression in RA treatment: NCOA7 [3, 5]: 4.44 fold | Individual variation of gene expression in RA treatment: NCOR1 [3, 5]: 4.2 fold | Individual variation of gene expression in RA treatment: PC4 [3, 5]: 3.57 fold | Individual variation of gene expression in RA treatment: PPARG [3, 5]: 4.59 fold | Individual variation of gene expression in RA treatment: RARA [3, 5]: 4.44 fold | Individual variation of gene expression in RA treatment: RARG [3, 5]: 3.37 fold | Individual variation of gene expression in RA treatment: RXRA [3, 5]: 4.34 fold | Individual variation of gene expression in RA treatment: RXRG [3, 5]: 4.01 fold | Individual variation of gene expression in RA treatment: TIMP1 [3, 5]: 4.21 fold | MMP1, collagenase 1 expression in RA treatment compared to control, from-to between individuals [3, 5]: (from −3.38 to 3.71) fold | MMP2 gelatinase expression in RA treatment compared to control, from-to between individuals [3, 5]: (from −2.7 to 2.35) fold | MMP3 stromelysin expression in RA treatment compared to control, from-to between individuals [3, 5]: (from −3.73 to 2.67) fold | MMP7 expression in RA treatment compared to control, from-to between individuals [3, 5]: (from −14.77 to 1.69) fold | MMP10, stromelysin 2 expression in RA treatment compared to control, from-to between individuals [3, 5]: (from −5.15 to 6.84) fold | MMP19 expression in RA treatment compared to control, from-to between individuals [3, 5]: (from −2.4 to 1.01) fold | NCOA1 expression in RA treatment compared to control, from-to between individuals [3, 5]: (from −2.99 to 2.69) fold | NCOA2 expression in RA treatment compared to control, from-to between individuals [3, 5]: (from −1.95 to 3.68) fold | NCOA3 expression in RA treatment compared to control, from-to between individuals [3, 5]: (from −2.02 to 4.14) fold | NCOA5 expression in RA treatment compared to control, from-to between individuals [3, 5]: (from −1.25 to 1.85) fold | NCOA6 expression in RA treatment compared to control, from-to between individuals [3, 5]: (from −1.44 to 1.99) fold | NCOA7 expression in RA treatment compared to control, from-to between individuals [3, 5]: (from −1.85 to 2.59) fold | NCOR1 expression in RA treatment compared to control, from-to between individuals [3, 5]: (from −2.23 to 1.97) fold | PC4 expression in RA treatment compared to control, from-to between individuals [3, 5]: (from −1.8 to 1.77) fold | PPARG expression in RA treatment compared to control, from-to between individuals [3, 5]: (from −1.64 to 2.95) fold | RARA expression in RA treatment compared to control, from-to between individuals [3, 5]: (from −1.53 to 2.91) fold | RARG expression in RA treatment compared to control, from-to between individuals [3, 5]: (from −1.45 to 1.92) fold | RXRA expression in RA treatment compared to control, from-to between individuals [3, 5]: (from −1.75 to 2.59) fold | RXRG expression in RA treatment compared to control, from-to between individuals [3, 5]: (from −2.02 to 1.99) fold | induced or repressed expression of different genes (Col1A1, Col4A1, Elastin, MMP1, MMP7) ([3]; in different fibroblast isolates, 17 individuals, 1 μM, 24 hours): up to 8 fold | variation between individual fibroblasts of expression of coactivators NCOA1, NCOA2 and NCOA3 ([3]; in response to atRA, 17 individuals): highest variation | combined score of expression stimulation of 5 genes (COL1A1, COL2A1, elastin, proteoglycan, TIMP1) per fibroblast isolate [4]: 3 groups of fibroblasts that have different response

From US20080206770A1, “SCREENING METHODS USED TO IDENTIFY COMPOUNDS THAT MODULATE SKIN STROMAL CELLS (FIBROBLASTS) ABILITY TO MODIFY FUNCTION OF EXTRACELLULAR MATRIX” (priority 2007, published 2008)
